Some test systems named below: BT-549 breast; HL-60(TB) leukemia; HS 578T breast; MDA-MB-231 breast; MDA-MB-435; OVCAR-3 ovarian; PC-3 prostate.
Experiment in all cases: inhibition of tumour cell growth, NCI panel, 48 h

Our source for the GI50 and TGI values is PubChem BioAssay (NCI).

SMILES strings stand for the structures.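 Dose response: 5 concentrations. Exposure: 48 h. Format: 96-well plates. Endpoint: linear interpolation; highest concentration if not reached. Here, GI50 denotes the concentration required for 50% inhibition of growth. The concentration for full growth arrest is given as TGI.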

As for `CC(C)(C)N1CC(OC(N)=O)C1`, the GI50 with BT-549 breast, in the test with HL-60(TB) leukemia, in the test on HS 578T breast, with MDA-MB-231 breast, in the test on MDA-MB-435 and in the test with OVCAR-3 ovarian was greater than 100 µM in each case. Besides, the GI50 in the test on PC-3 prostate is greater than 100 µM. In addition, the TGI in the test with BT-549 breast, in the test on HL-60(TB) leukemia, in the test with HS 578T breast, with MDA-MB-231 breast, with MDA-MB-435 and with OVCAR-3 ovarian was greater than 100 µM throughout. In the test with PC-3 prostate, this molecule displayed a TGI greater than 100 µM.

Consider `COc1ccc(-c2nc(N)c3ncn(C4OC(CO)C(O)C4O)c3n2)cc1` (configuration not stated), for which the TGI in the test on BT-549 breast, in the test with HL-60(TB) leukemia, in the test with HS 578T breast, with MDA-MB-231 breast, in the test with MDA-MB-435 and in the test on OVCAR-3 ovarian was greater than 100 µM throughout. Further, the TGI in the test on PC-3 prostate was greater than 100 µM.

`Cc1cccc2c1O/C(=C\c1ncc([N+](=O)[O-])n1C)C2=O`: the GI50 with BT-549 breast is 0.275 µM; in the test with HL-60(TB) leukemia, 0.216 µM; in the test with HS 578T breast, 0.375 µM; in the test with MDA-MB-231 breast it was 0.295 µM; with MDA-MB-435, 0.153 µM; in the test on OVCAR-3 ovarian, 0.254 µM. For the same molecule, in the test on PC-3 prostate, the GI50 is 0.445 µM. The TGI in the test with BT-549 breast is 1.19 µM; in the test with HL-60(TB) leukemia, 1.13 µM; with HS 578T breast it was 4.7 µM; in the test on MDA-MB-231 breast, 1.51 µM; in the test with MDA-MB-435 it was 0.35 µM; with OVCAR-3 ovarian it was 0.864 µM.

Turning to `COc1cc(C)[nH]c(=O)c1CN1CCc2c(Cl)cc([C@H](OC)C3COC3)c(Cl)c2C1=O`, the GI50 in the test on BT-549 breast, in the test with HL-60(TB) leukemia, with HS 578T breast, in the test with MDA-MB-231 breast, in the test on MDA-MB-435 and with OVCAR-3 ovarian was greater than 100 µM throughout. Further, the GI50 with PC-3 prostate was greater than 100 µM. Further, the TGI in the test with BT-549 breast, in the test on HL-60(TB) leukemia, with HS 578T breast, with MDA-MB-231 breast, with MDA-MB-435 and in the test with OVCAR-3 ovarian was greater than 100 µM throughout. The TGI in the test with PC-3 prostate was greater than 100 µM.

As for `COc1cccc(-c2nc(-c3ccc(NC(=O)c4ccccc4)cc3)[nH]c2-c2ccnc(Br)c2)c1`, the GI50 in the test with BT-549 breast is 3.3 µM; in the test on HL-60(TB) leukemia it was 1.72 µM; in the test on HS 578T breast it was 0.339 µM; in the test on MDA-MB-231 breast it was 3.97 µM; with MDA-MB-435, 4.72 µM; in the test with OVCAR-3 ovarian, 4.48 µM. Further, the GI50 in the test with PC-3 prostate was 3.25 µM. Besides, the TGI is greater than 100 µM with BT-549 breast; 7.45 µM in the test on HL-60(TB) leukemia; 1.75 µM in the test on HS 578T breast; greater than 100 µM in the test on MDA-MB-231 breast; greater than 100 µM in the test on MDA-MB-435; greater than 100 µM in the test with OVCAR-3 ovarian. The TGI with PC-3 prostate was greater than 100 µM.

Take `COc1ccccc1N1CCN(C(=O)c2ccc(NS(=O)(=O)c3cccc4cccnc34)cc2)CC1`: the GI50 is greater than 76.5 µM with BT-549 breast; greater than 100 µM with HL-60(TB) leukemia; greater than 46.4 µM in the test on HS 578T breast; greater than 53.6 µM in the test with MDA-MB-231 breast; greater than 100 µM in the test with MDA-MB-435; greater than 100 µM in the test on OVCAR-3 ovarian. The GI50 in the test with PC-3 prostate is greater than 100 µM. The TGI in the test with BT-549 breast is greater than 100 µM; in the test on HL-60(TB) leukemia it was greater than 100 µM; in the test with HS 578T breast it was 99.4 µM; in the test with MDA-MB-231 breast it was greater than 100 µM; in the test with MDA-MB-435 it was greater than 100 µM; in the test on OVCAR-3 ovarian it was greater than 100 µM. This molecule displayed a TGI in the test with PC-3 prostate greater than 100 µM.

In the case of `O=C1/C=C/[C@@H](O)[C@@H]2C[C@@H](O)C[C@H]2/C=C/CCC[C@H](CO)O1`, the GI50 is 3.98 µM in the test with BT-549 breast; 2.24 µM with HL-60(TB) leukemia; greater than 100 µM in the test with HS 578T breast; 1.96 µM in the test on MDA-MB-231 breast; 2.91 µM in the test with MDA-MB-435; 2.2 µM in the test with OVCAR-3 ovarian. For the same molecule, the GI50 with PC-3 prostate is 2.5 µM. Moreover, the TGI was greater than 100 µM in the test on BT-549 breast; 8.29 µM in the test on HL-60(TB) leukemia; greater than 100 µM with HS 578T breast; 4.81 µM in the test on MDA-MB-231 breast; greater than 100 µM in the test on MDA-MB-435; greater than 100 µM in the test with OVCAR-3 ovarian. Further, the TGI in the test on PC-3 prostate was greater than 100 µM.

For `O=c1ccccc(-c2ccc(-c3ccco3)cc2)c1O`, the GI50 in the test with BT-549 breast was 1.65 µM; in the test with HL-60(TB) leukemia it was 0.441 µM; in the test with HS 578T breast, 4.94 µM; in the test on MDA-MB-231 breast, 0.704 µM; in the test with MDA-MB-435, 1.85 µM; with OVCAR-3 ovarian, 0.415 µM. For the same molecule, the GI50 in the test with PC-3 prostate was 1.46 µM. In addition, the TGI in the test with BT-549 breast is 28 µM; in the test on HL-60(TB) leukemia, 2.69 µM; with HS 578T breast it was 76.9 µM; in the test on MDA-MB-231 breast, 44.4 µM; in the test on MDA-MB-435 it was greater than 100 µM; in the test on OVCAR-3 ovarian, 26.3 µM. In the test with PC-3 prostate, this molecule displayed a TGI of 31.8 µM.

In the case of `N#C/C(=C/C=C/c1ccccc1)S(=O)c1ccccc1` (configuration not stated), the GI50 in the test on BT-549 breast is 0.712 µM; in the test on HL-60(TB) leukemia, 0.288 µM; in the test on HS 578T breast it was 2.95 µM; with MDA-MB-231 breast it was 0.371 µM; with MDA-MB-435 it was 0.485 µM; with OVCAR-3 ovarian, 0.307 µM. For the same molecule, the GI50 in the test with PC-3 prostate is 1.35 µM. Moreover, the TGI stood at 2.35 µM in the test with BT-549 breast; 2.25 µM with HL-60(TB) leukemia; 39.8 µM in the test with HS 578T breast; 1.56 µM in the test with MDA-MB-231 breast; 1.83 µM in the test with MDA-MB-435; 1.13 µM in the test with OVCAR-3 ovarian. In addition, in the test with PC-3 prostate, the TGI was found to be 3.33 µM.

For the molecule `O=C1c2cccc3cc([N+](=O)[O-])cc(c23)C(=O)N1CCN1CCCC1`, the GI50 with BT-549 breast is 1.56 µM; with HL-60(TB) leukemia, 0.404 µM; in the test on HS 578T breast, 1.08 µM; with MDA-MB-231 breast, 1.56 µM; in the test on MDA-MB-435, 1.31 µM; in the test on OVCAR-3 ovarian, 1.74 µM. Moreover, the GI50 in the test on PC-3 prostate is 1.58 µM. In addition, the TGI with BT-549 breast is 7.55 µM; with HL-60(TB) leukemia, greater than 100 µM; in the test on HS 578T breast, 5.36 µM; with MDA-MB-231 breast it was 11.1 µM; with MDA-MB-435, 2.99 µM; in the test with OVCAR-3 ovarian, 5.71 µM. The same molecule gave a TGI with PC-3 prostate of 12.5 µM.

As for `CC1OC(O[C@H]2/C=C/C=C/C=C/C=C/C=C/C=C/C=C/[C@H](C)[C@@H](O)[C@@H](C)[C@H](C)OC(=O)C[C@H](O)C[C@H](O)CC[C@@H](O)[C@H](O)C[C@H](O)C[C@]3(O)C[C@H](O)[C@@H](C(=O)O)[C@H](C2)O3)C(O)C(N)C1O` (some centres not stated), the GI50 with BT-549 breast was 20.6 µM; in the test on HL-60(TB) leukemia, 3.29 µM; in the test on MDA-MB-231 breast, 32.9 µM; with MDA-MB-435, 7.94 µM. For the same molecule, the TGI in the test with BT-549 breast is 68.1 µM; in the test on HL-60(TB) leukemia it was 30.6 µM; in the test with HS 578T breast, 27.7 µM; in the test with MDA-MB-231 breast it was 48.2 µM; with MDA-MB-435, 19.3 µM; in the test with OVCAR-3 ovarian it was 27.2 µM. The molecule further registered a TGI in the test with PC-3 prostate of 31.8 µM.

As for `CC1=C(C(=O)NCC(C)O)CC(C(=O)NCC(C)O)=C(C)N1` (configuration not stated), the TGI in the test with BT-549 breast, in the test with HL-60(TB) leukemia, in the test with HS 578T breast, with MDA-MB-231 breast, in the test on MDA-MB-435 and in the test with OVCAR-3 ovarian was greater than 100 µM in each case. In the test with PC-3 prostate, this molecule showed a TGI greater than 100 µM.

On to `CN(C)CCNC1=CC(=O)c2c(O)ccc(O)c2C1=O`, for which the TGI in the test with BT-549 breast amounted to 31 µM; in the test with HL-60(TB) leukemia, 6.53 µM; in the test on HS 578T breast, 53.6 µM; in the test on MDA-MB-231 breast, 25 µM; in the test with MDA-MB-435, 3.33 µM; in the test on OVCAR-3 ovarian, 5.67 µM. The TGI in the test with PC-3 prostate stood at 21.5 µM.

Regarding `C=C1SC(=Nc2ccccc2Cl)N(C(=O)c2sc3ccccc3c2Cl)C1(C)C`, the GI50 in the test with BT-549 breast was 10 µM; with HL-60(TB) leukemia it was 9.3 µM; in the test with HS 578T breast it was 5.66 µM; in the test on MDA-MB-231 breast, 8.68 µM; in the test with MDA-MB-435 it was 17.3 µM; in the test with OVCAR-3 ovarian, 7.55 µM. For the same molecule, the GI50 with PC-3 prostate was 4.68 µM. For the same molecule, the TGI in the test with BT-549 breast was 49.2 µM; in the test on HL-60(TB) leukemia, greater than 100 µM; in the test on HS 578T breast it was 57.8 µM; with MDA-MB-231 breast, 59.5 µM; in the test with MDA-MB-435, 97 µM; with OVCAR-3 ovarian it was greater than 56.3 µM. For the same molecule, the TGI in the test with PC-3 prostate is greater than 100 µM.

Consider `CCC(c1ccc(OC)cc1)C(CC)c1ccc(O)c(CN2CCCC2)c1` (configuration not stated), for which the GI50 was 3.27 µM in the test on BT-549 breast; 2.14 µM in the test with HL-60(TB) leukemia; 5.33 µM in the test on HS 578T breast; 2.49 µM in the test with MDA-MB-231 breast; 2.01 µM with MDA-MB-435; 6.15 µM with OVCAR-3 ovarian. In the test with PC-3 prostate, the GI50 is 3.38 µM. Moreover, the TGI amounted to 11.5 µM in the test on BT-549 breast; 4.76 µM in the test with HL-60(TB) leukemia; 23.8 µM in the test on HS 578T breast; 6.03 µM in the test on MDA-MB-231 breast; 4.76 µM in the test on MDA-MB-435; 19.5 µM in the test on OVCAR-3 ovarian. Also, the TGI with PC-3 prostate was found to be 14.3 µM.

For `COc1ccc(C(=O)C(Br)C(Br)C(=O)O)cc1` (configuration not stated), the TGI in the test with BT-549 breast was 63.7 µM; in the test on HS 578T breast, greater than 100 µM; in the test on MDA-MB-231 breast, greater than 100 µM; with MDA-MB-435 it was greater than 100 µM; with OVCAR-3 ovarian it was 57.4 µM; with PC-3 prostate it was greater than 100 µM.

As for `Cc1ccc(C(=O)CCC2C(=O)CC(C)(C)CC2=O)cc1`, the TGI in the test with BT-549 breast, with HS 578T breast, in the test on MDA-MB-231 breast, in the test on MDA-MB-435, with OVCAR-3 ovarian and in the test with PC-3 prostate was greater than 100 µM each time.
